In patent US20240058464A1 (Fortis Therapeutics, Inc., priority 2021, published 2024):
Like-named read-outs stand apart in the source and are kept apart here.

Legend:
CD46 expression [1] = test system: CD46 expression
Method: (§1) Gene expression was determined by RNA-sequencing from formalin-fixed, paraffin-embedded (FFPE) tumor samples using an exome capture-based protocol. Briefly, total nucleic acid was extracted from FFPE solid tumor samples. The RNA sample was treated with DNAse and reverse transcribed. cDNA was captured with a custom probe set targeting the human exome. A library was prepared from the captured cDNA and sequenced on the Illumina platform. Sequence read were aligned to GRCh37 using Kallisto and normalized to quantify gene expression. Specifically, transcript counts were corrected for GC content and length using quantile normalization and adjusted for sequencing depth via a size factor method. Normalized counts in protein coding transcripts covered by the exome panel were then summed to obtain gene-level counts. Subsequent expression analyses were performed on log2-transformed counts.

CD46 expression [2] = assay: CD46 expression by RNA-sequencing in unpaired pre-treatment and post-treatment tumor biopsies; type: in vivo, human; settings: for CD46 expression Post: post-treatment biopsies
CD46 expression [3] = assay: CD46 expression by RNA-sequencing in paired tumor biopsies before and after therapy; settings: paired biopsies; for CD46 expression, Post-Treatment Biopsy / CD46 expression, Pre-Treatment Biopsy: RNA-seq log2-transformed counts;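 as to all read-outs here: FFPE human tumor biopsies, exome-capture RNA-seq, reads aligned to GRCh37, counts normalized for GC content, length and depth, summed per gene, log2-transformed, samples paired before versus after therapy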
Method: as §1

[4] = Breast Cancer, Post minus Pre, unpaired biopsies, log2-transformed counts
[5] = Breast Cancer, post- vs pre-treatment unpaired biopsies
[6] = Breast Cancer, unpaired, RNA-seq log2-transformed normalized counts
[7] = Esophageal Cancer, Post minus Pre, unpaired biopsies, log2-transformed counts
[8] = Esophageal Cancer, post- vs pre-treatment unpaired biopsies
[9] = Esophageal Cancer, unpaired, RNA-seq log2-transformed normalized counts
[10] = Gastric Cancer, Post minus Pre, unpaired biopsies, log2-transformed counts
[11] = Gastric Cancer, post- vs pre-treatment unpaired biopsies
[12] = Gastric Cancer, unpaired, RNA-seq log2-transformed normalized counts
[13] = Non-Small Cell Lung Cancer, Post minus Pre, unpaired biopsies, log2-transformed counts
[14] = Non-Small Cell Lung Cancer, post- vs pre-treatment unpaired biopsies
[15] = Non-Small Cell Lung Cancer, unpaired, RNA-seq log2-transformed normalized counts
[16] = Colorectal Cancer, Post minus Pre, unpaired biopsies, log2-transformed counts
[17] = Colorectal Cancer, post- vs pre-treatment unpaired biopsies
[18] = Colorectal Cancer, unpaired, RNA-seq log2-transformed normalized counts

For `C=C1C[C@@H]2[C@H](CC[C@]3(C)C(=O)CC[C@@H]23)[C@@]2(C)C=CC(=O)C=C12` [exemestane], the “CD46 expression, Post-Treatment Biopsy” value (CD46 expression [1]) was 6.37, the “CD46 expression, Pre-Treatment Biopsy” value (CD46 expression [1]) was 6.41 and the “CD46 expression diff (post minus pre)” value (CD46 expression [1]; Breast Cancer, paired biopsies) was −0.04. For the same molecule, the “Percent Change in CD46 expression” value (CD46 expression [1]; Breast Cancer, paired biopsies) was 0.5%, the CD46 expression diff (CD46 expression [2]; [4]) was 0.11 and the “CD46 expression Percentage change” value (CD46 expression [2]; [5]) was 1.8%. The “CD46 expression Post” value (CD46 expression [2]; [6]) was 6.50.
In the case of `CC(=O)O[C@H]1C(=O)[C@@]2(C)[C@H]([C@H](OC(=O)c3ccccc3)[C@]3(O)C[C@H](OC(=O)[C@H](O)[C@@H](NC(=O)c4ccccc4)c4ccccc4)C(C)=C1C3(C)C)[C@]1(OC(C)=O)CO[C@@H]1C[C@@H]2O` [paclitaxel], the “CD46 expression diff (post minus pre)” value (CD46 expression [3]; Breast Cancer) is reported as −0.09, the “Percent Change in CD46 expression” value (CD46 expression [3]; Breast Cancer) is reported as −1.4% and the “CD46 expression, Post-Treatment Biopsy” value (CD46 expression [3]; Breast Cancer) is reported as 6.12. For the same molecule, the “CD46 expression diff (post minus pre)” value (CD46 expression [3]; Endometrial Cancer) was 0.19, the “Percent Change in CD46 expression” value (CD46 expression [3]; Endometrial Cancer) was 3.2% and the “CD46 expression, Post-Treatment Biopsy” value (CD46 expression [3]; Endometrial Cancer) was 6.01. The “CD46 expression diff (post minus pre)” value (CD46 expression [3]; Esophageal Cancer) was 0.05, the “Percent Change in CD46 expression” value (CD46 expression [3]; Esophageal Cancer) was 0.8% and the “CD46 expression, Post-Treatment Biopsy” value (CD46 expression [3]; Esophageal Cancer) was 6.02. The “CD46 expression diff (post minus pre)” value (CD46 expression [3]; Non-Small Cell Lung Cancer) was −0.23, the “Percent Change in CD46 expression” value (CD46 expression [3]; Non-Small Cell Lung Cancer) was −3.7% and the “CD46 expression, Post-Treatment Biopsy” value (CD46 expression [3]; Non-Small Cell Lung Cancer) was 5.89. For the same molecule, the “CD46 expression diff (post minus pre)” value (CD46 expression [3]; Ovarian Cancer) was −0.04, the “Percent Change in CD46 expression” value (CD46 expression [3]; Ovarian Cancer) was −0.8% and the “CD46 expression, Post-Treatment Biopsy” value (CD46 expression [3]; Ovarian Cancer) was 5.67. For the same molecule, the CD46 expression diff (CD46 expression [2]; Breast Cancer, post minus pre, unpaired biopsies) was −0.15, the “CD46 expression Percentage change” value (CD46 expression [2]; Breast Cancer, post vs pre, unpaired biopsies) was −2.4% and the “CD46 expression Post” value (CD46 expression [2]; Breast Cancer, log2-transformed RNA-seq counts) was 6.04. The CD46 expression diff (CD46 expression [2]; Endometrial Cancer, Post minus Pre, unpaired biopsies, log2-transformed counts) was 0.03, the “CD46 expression Percentage change” value (CD46 expression [2]; Endometrial Cancer, post- vs pre-treatment unpaired biopsies) was 0.6% and the “CD46 expression Post” value (CD46 expression [2]; Endometrial Cancer, unpaired, RNA-seq log2-transformed normalized counts) was 5.85. The CD46 expression diff (CD46 expression [2]; [7]) was −0.13, the “CD46 expression Percentage change” value (CD46 expression [2]; [8]) was −2.1% and the “CD46 expression Post” value (CD46 expression [2]; [9]) was 5.79. For the same molecule, the CD46 expression diff (CD46 expression [2]; [10]) was 0.04, the “CD46 expression Percentage change” value (CD46 expression [2]; [11]) was 0.7% and the “CD46 expression Post” value (CD46 expression [2]; [12]) was 5.82. For the same molecule, the CD46 expression diff (CD46 expression [2]; Head and Neck Squamous Cell Carcinoma, Post minus Pre, unpaired biopsies, log2-transformed counts) was 0.13, the “CD46 expression Percentage change” value (CD46 expression [2]; Head and Neck Squamous Cell Carcinoma, post- vs pre-treatment unpaired biopsies) was 2.4% and the “CD46 expression Post” value (CD46 expression [2]; Head and Neck Squamous Cell Carcinoma, unpaired, RNA-seq log2-transformed normalized counts) was 5.68. For the same molecule, the CD46 expression diff (CD46 expression [2]; [13]) was −0.07, the “CD46 expression Percentage change” value (CD46 expression [2]; [14]) was −1.1% and the “CD46 expression Post” value (CD46 expression [2]; [15]) was 6.00. The CD46 expression diff (CD46 expression [2]; Ovarian Cancer, Post minus Pre, unpaired biopsies, log2-transformed counts) was −0.01, the “CD46 expression Percentage change” value (CD46 expression [2]; Ovarian Cancer, post- vs pre-treatment unpaired biopsies) was −0.1% and the “CD46 expression Post” value (CD46 expression [2]; Ovarian Cancer, unpaired, RNA-seq log2-transformed normalized counts) was 5.73. The CD46 expression diff (CD46 expression [2]; Sarcoma, Post minus Pre, unpaired biopsies, log2-transformed counts) was −0.09, the “CD46 expression Percentage change” value (CD46 expression [2]; Sarcoma, post- vs pre-treatment unpaired biopsies) was −1.7% and the “CD46 expression Post” value (CD46 expression [2]; Sarcoma, unpaired, RNA-seq log2-transformed normalized counts) was 4.96.
For `O=C1[O][Pt]2([NH][C@@H]3CCCC[C@H]3[NH]2)[O]C1=O` [oxaliplatin], the “CD46 expression diff (post minus pre)” value (CD46 expression [3]; Colorectal Cancer) was −0.04, the “Percent Change in CD46 expression” value (CD46 expression [3]; Colorectal Cancer) was −0.6% and the “CD46 expression, Post-Treatment Biopsy” value (CD46 expression [3]; Colorectal Cancer) was 6.26. The “CD46 expression, Pre-Treatment Biopsy” value (CD46 expression [3]; Colorectal Cancer) was 6.30, the “CD46 expression diff (post minus pre)” value (CD46 expression [3]; Esophageal Cancer) was −0.17 and the “Percent Change in CD46 expression” value (CD46 expression [3]; Esophageal Cancer) was −2.9%. For the same molecule, the “CD46 expression, Post-Treatment Biopsy” value (CD46 expression [3]; Esophageal Cancer) was 5.74, the “CD46 expression, Pre-Treatment Biopsy” value (CD46 expression [3]; Esophageal Cancer) was 5.91 and the “CD46 expression diff (post minus pre)” value (CD46 expression [3]; Gastric Cancer) was 0.05. For the same molecule, the “Percent Change in CD46 expression” value (CD46 expression [3]; Gastric Cancer) was 0.8%, the “CD46 expression, Post-Treatment Biopsy” value (CD46 expression [3]; Gastric Cancer) was 5.69 and the “CD46 expression, Pre-Treatment Biopsy” value (CD46 expression [3]; Gastric Cancer) was 5.64. For the same molecule, the “CD46 expression diff (post minus pre)” value (CD46 expression [3]; Pancreatic Cancer) was 0.06, the “Percent Change in CD46 expression” value (CD46 expression [3]; Pancreatic Cancer) was 1.0% and the “CD46 expression, Post-Treatment Biopsy” value (CD46 expression [3]; Pancreatic Cancer) was 5.93. The “CD46 expression, Pre-Treatment Biopsy” value (CD46 expression [3]; Pancreatic Cancer) was 5.87, the CD46 expression diff (CD46 expression [2]; Biliary Cancer, Post minus Pre, unpaired biopsies, log2-transformed counts) was 0.05 and the “CD46 expression Percentage change” value (CD46 expression [2]; Biliary Cancer, post- vs pre-treatment unpaired biopsies) was 0.9%. The “CD46 expression Post” value (CD46 expression [2]; Biliary Cancer, unpaired, RNA-seq log2-transformed normalized counts) was 5.91, the CD46 expression diff (CD46 expression [2]; [16]) was 0.04 and the “CD46 expression Percentage change” value (CD46 expression [2]; [17]) was 0.6%. For the same molecule, the “CD46 expression Post” value (CD46 expression [2]; [18]) was 6.42, the CD46 expression diff (CD46 expression [2]; [7]) was −0.06 and the “CD46 expression Percentage change” value (CD46 expression [2]; [8]) was −1.0%. For the same molecule, the “CD46 expression Post” value (CD46 expression [2]; [9]) was 5.85, the CD46 expression diff (CD46 expression [2]; [10]) was −0.12 and the “CD46 expression Percentage change” value (CD46 expression [2]; [11]) was −2.1%. For the same molecule, the “CD46 expression Post” value (CD46 expression [2]; [12]) was 5.66, the CD46 expression diff (CD46 expression [2]; Pancreatic Cancer, Post minus Pre, unpaired biopsies, log2-transformed counts) was −0.13 and the “CD46 expression Percentage change” value (CD46 expression [2]; Pancreatic Cancer, post- vs pre-treatment unpaired biopsies) was −2.2%.
`CCc1c2c(nc3ccc(OC(=O)N4CCC(N5CCCCC5)CC4)cc13)-c1cc3c(c(=O)n1C2)COC(=O)[C@]3(O)CC` [irinotecan] was tested, and the “CD46 expression diff (post minus pre)” value (CD46 expression [3]; Colorectal Cancer) was 0.16, the “Percent Change in CD46 expression” value (CD46 expression [3]; Colorectal Cancer) was 2.5% and the “CD46 expression, Post-Treatment Biopsy” value (CD46 expression [3]; Colorectal Cancer) was 6.48. For the same molecule, the “CD46 expression diff (post minus pre)” value (CD46 expression [3]; Pancreatic Cancer) was −0.01, the “Percent Change in CD46 expression” value (CD46 expression [3]; Pancreatic Cancer) was −0.1% and the “CD46 expression, Post-Treatment Biopsy” value (CD46 expression [3]; Pancreatic Cancer) was 5.93. The CD46 expression diff (CD46 expression [2]; Biliary Cancer, post minus pre, unpaired biopsies) was −0.14, the “CD46 expression Percentage change” value (CD46 expression [2]; Biliary Cancer, post vs pre, unpaired biopsies) was −2.3% and the “CD46 expression Post” value (CD46 expression [2]; Biliary Cancer, log2-transformed RNA-seq counts) was 5.88. For the same molecule, the CD46 expression diff (CD46 expression [2]; [16]) was 0.16, the “CD46 expression Percentage change” value (CD46 expression [2]; [17]) was 2.5% and the “CD46 expression Post” value (CD46 expression [2]; [18]) was 6.54. The CD46 expression diff (CD46 expression [2]; Pancreatic Cancer, post minus pre, unpaired biopsies) was −0.14, the “CD46 expression Percentage change” value (CD46 expression [2]; Pancreatic Cancer, post vs pre, unpaired biopsies) was −2.5% and the “CD46 expression Post” value (CD46 expression [2]; Pancreatic Cancer, log2-transformed RNA-seq counts) was 5.76. The “CD46 expression after treatment vs pre-treatment” value (CD46 expression [2]; colorectal cancer, unpaired biopsies, FIG. 5) was “significantly higher”.
In the case of `Nc1nc2[nH]cc(CCc3ccc(C(=O)N[C@@H](CCC(=O)O)C(=O)O)cc3)c2c(=O)[nH]1` [pemetrexed], the “CD46 expression diff (post minus pre)” value (CD46 expression [3]; Non-Small Cell Lung Cancer) is reported as −0.20, the “Percent Change in CD46 expression” value (CD46 expression [3]; Non-Small Cell Lung Cancer) is reported as −3.1% and the “CD46 expression, Post-Treatment Biopsy” value (CD46 expression [3]; Non-Small Cell Lung Cancer) is reported as 6.22. For the same molecule, the CD46 expression diff (CD46 expression [2]; [13]) was −0.11, the “CD46 expression Percentage change” value (CD46 expression [2]; [14]) was −1.8% and the “CD46 expression Post” value (CD46 expression [2]; [15]) was 6.27.
With `N#Cc1ccc(C(c2ccc(C#N)cc2)n2cncn2)cc1` [letrozole] the “CD46 expression diff (post minus pre)” value (CD46 expression [3]; Breast Cancer) was −0.04, the “Percent Change in CD46 expression” value (CD46 expression [3]; Breast Cancer) was −0.6% and the “CD46 expression, Post-Treatment Biopsy” value (CD46 expression [3]; Breast Cancer) was 6.41. For the same molecule, the CD46 expression diff (CD46 expression [2]; [4]) was −0.04, the “CD46 expression Percentage change” value (CD46 expression [2]; [5]) was −0.6% and the “CD46 expression Post” value (CD46 expression [2]; [6]) was 6.39. The CD46 expression diff (CD46 expression [2]; Ovarian Cancer, post minus pre, unpaired biopsies) was −0.17, the “CD46 expression Percentage change” value (CD46 expression [2]; Ovarian Cancer, post vs pre, unpaired biopsies) was −2.8% and the “CD46 expression Post” value (CD46 expression [2]; Ovarian Cancer, log2-transformed RNA-seq counts) was 5.74.
